The GI50 is the concentration giving 50% growth inhibition.

Molecules are shown by their SMILES.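 How tested: cells in 96-well plates exposed to compound for 48 hours at five concentrations. At the GI50, growth is halved.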 Activity calls are given as the source filed them. Rule as the data show it: active = GI50 up to about 1.1 µM and inactive = higher.

Test systems include SF-295; UO-31; OVCAR-3; EKVX; RXF 393; NCI-H460; SR; SK-OV-3; SW-620; ACHN; KM12; CAKI-1; SNB-19; RPMI-8226; K562; LOX IMVI; OVCAR-8; HOP-92; NCI-H226.
What all share (assay): DTP human tumour cell line panel, 48 h

Regarding `O=S(=O)(/C=C/C(=C/c1ccccc1)S(=O)(=O)c1ccccc1)c1ccccc1`, the GI50 with SF-295 is 1.66 µM (inactive); with UO-31, 1.82 µM (inactive); in the assay on OVCAR-3 it was 1.73 µM (inactive); with EKVX, 1.77 µM (inactive); in the assay on RXF 393, 1.73 µM (inactive); in the assay on NCI-H460 it was 1.78 µM (inactive). The GI50 with SR is 1.51 µM (inactive); with SK-OV-3 it was 1.44 µM (inactive); in the assay on SW-620, 2.04 µM (inactive); in the assay with ACHN, 1.76 µM (inactive); with KM12, 2.16 µM (inactive); with CAKI-1, 1.51 µM (inactive). In addition, the GI50 was 1.78 µM (inactive) in the assay on SNB-19; 0.61 µM (active) in the assay on RPMI-8226; 1 µM (active) in the assay on K562; 0.658 µM (active) in the assay on LOX IMVI; 1.63 µM (inactive) in the assay on OVCAR-8.

Turning to `Cn1c(SCc2ccc([N+](=O)[O-])cc2)nnc1C12CC3CC(CC(C3)C1)C2`, the GI50 in the assay on SF-295, with UO-31, with OVCAR-3, in the assay on EKVX, in the assay on RXF 393 and in the assay on NCI-H460 was > 10 µM (inactive) throughout. Further, the GI50 in the assay with SK-OV-3, in the assay with SW-620, in the assay with ACHN, in the assay with KM12, with HOP-92 and in the assay with CAKI-1 was > 10 µM (inactive) throughout. Also, the GI50 in the assay on SNB-19, with RPMI-8226, in the assay with K562, in the assay on LOX IMVI, with NCI-H226 and in the assay on OVCAR-8 was > 10 µM (inactive) each time.

`CN(C)c1ccc([S+]([O-])Nc2ccccc2)cc1` (stereo not drawn): the GI50 with SF-295 was 48.8 µM (inactive); in the assay with UO-31, 11.1 µM (inactive); in the assay on OVCAR-3, > 100 µM (inactive); in the assay on EKVX, 32.8 µM (inactive); in the assay on NCI-H460 it was 27.5 µM (inactive); with SR, 31.6 µM (inactive). The GI50 with SW-620 was 51.2 µM (inactive); in the assay on ACHN, 29.6 µM (inactive); with KM12 it was 17.1 µM (inactive); in the assay with SNB-19, 60.1 µM (inactive); with RPMI-8226, 27.5 µM (inactive); with K562, 28.1 µM (inactive). For the same molecule, the figures for the GI50 with LOX IMVI, in the assay with NCI-H226 and in the assay on OVCAR-8 were 38.9 µM (inactive), 38.4 µM (inactive) and 30.5 µM (inactive), respectively.

For the molecule `C/C=C1/CC(C(=O)OC)N(C(=O)OCc2ccccc2)C1=S` (stereo not drawn), the GI50 in the assay on SF-295 was > 100 µM (inactive); in the assay on UO-31 it was > 100 µM (inactive); in the assay on OVCAR-3, > 100 µM (inactive); with EKVX, 84.3 µM (inactive); in the assay with RXF 393, > 100 µM (inactive); in the assay with NCI-H460, 12.3 µM (inactive). The GI50 with SK-OV-3, with SW-620, in the assay on ACHN, in the assay with KM12, with HOP-92 and with CAKI-1 was > 100 µM (inactive) in each case. Moreover, the GI50 in the assay on SNB-19, in the assay on RPMI-8226, in the assay with K562 and in the assay with OVCAR-8 was > 100 µM (inactive) each time.

As for `C[Si](C)(C)c1ccc(-c2c3ccc(-c4cc(Br)cc(Br)c4)nc3nc3nc(-c4cc(Br)cc(Br)c4)ccc23)cc1`, the GI50 with SF-295, with UO-31, with OVCAR-3, in the assay with EKVX, with NCI-H460 and in the assay with SK-OV-3 was > 100 µM (inactive) each time. Besides, the GI50 in the assay with ACHN, with KM12, with HOP-92, in the assay with CAKI-1, in the assay on SNB-19 and in the assay with RPMI-8226 was > 100 µM (inactive) throughout. For the same molecule, the GI50 with NCI-H226 is > 100 µM (inactive).

`CCOC(=O)CCC(C(=O)OCC)n1nnc2cc(Nc3c(C)[n+]([O-])c4cc(Cl)ccc4[n+]3[O-])ccc21` (stereo not drawn): the GI50 with SF-295 was 68.5 µM (inactive); with UO-31, 72.6 µM (inactive); with OVCAR-3, 40.2 µM (inactive); in the assay with EKVX, 14.2 µM (inactive); in the assay with RXF 393 it was 53.6 µM (inactive); in the assay with NCI-H460, 48.3 µM (inactive). Moreover, the GI50 in the assay on SK-OV-3 was > 100 µM (inactive); in the assay on SW-620 it was 88.7 µM (inactive); in the assay on ACHN, 46.2 µM (inactive); in the assay on KM12, > 100 µM (inactive); with HOP-92, 67.9 µM (inactive); in the assay with CAKI-1 it was 93.3 µM (inactive). The GI50 was > 100 µM (inactive) in the assay with SNB-19; 37.2 µM (inactive) with RPMI-8226; 59.2 µM (inactive) with K562; 69.2 µM (inactive) in the assay on LOX IMVI; 32.9 µM (inactive) in the assay with NCI-H226; > 100 µM (inactive) in the assay on OVCAR-8.

Consider `COc1ccc(C2SC(=N)Nc3c2c(C)nn3C(=O)c2ccc(Cl)cc2)cc1` (stereo not drawn), for which the GI50 with SF-295, in the assay on OVCAR-3, in the assay with EKVX, with RXF 393, in the assay on NCI-H460 and with SK-OV-3 was > 10 µM (inactive) throughout. Besides, the GI50 with SW-620, in the assay with ACHN, in the assay with KM12, in the assay with HOP-92, with CAKI-1 and in the assay on SNB-19 was > 10 µM (inactive) each time. The GI50 with RPMI-8226, in the assay on K562, in the assay with LOX IMVI, in the assay with NCI-H226 and in the assay on OVCAR-8 was > 10 µM (inactive) throughout.

Turning to `Nc1nc(N)c2ncn(-c3ccc(Cl)c(Cl)c3)c2n1`, the GI50 was 28.1 µM (inactive) with SF-295; 18.5 µM (inactive) in the assay on UO-31; 14.5 µM (inactive) in the assay with OVCAR-3; 25.5 µM (inactive) in the assay on EKVX; 12.7 µM (inactive) in the assay on RXF 393; 24.9 µM (inactive) in the assay with SK-OV-3. The GI50 in the assay on SW-620 is 42.4 µM (inactive); with ACHN, 42.2 µM (inactive); in the assay with KM12, 25.4 µM (inactive); in the assay on HOP-92 it was 52.7 µM (inactive); in the assay on CAKI-1, 16.9 µM (inactive); in the assay with SNB-19 it was 57 µM (inactive). In addition, the figures for the GI50 in the assay with RPMI-8226, in the assay on NCI-H226 and in the assay on OVCAR-8 were 22.4 µM (inactive), 35.2 µM (inactive) and 24.5 µM (inactive), respectively.

Regarding `COC(=O)/C1=C/C2CC(/C=C(/c3ccccc3)C(=O)O1)C2`, the GI50 in the assay with SF-295 was 32.9 µM (inactive); with UO-31, 32.9 µM (inactive); in the assay on OVCAR-3, 33.2 µM (inactive); in the assay on EKVX, 40.3 µM (inactive); in the assay with RXF 393, 25.1 µM (inactive); with NCI-H460, 32.6 µM (inactive). The GI50 in the assay on SK-OV-3 was 36.7 µM (inactive); in the assay on SW-620 it was 33.7 µM (inactive); with ACHN, 26.3 µM (inactive); in the assay on KM12 it was 23.8 µM (inactive); in the assay on SNB-19 it was 35.4 µM (inactive); with RPMI-8226, 18.3 µM (inactive). The GI50 in the assay on K562 is 27.8 µM (inactive); in the assay on LOX IMVI, 17.5 µM (inactive); in the assay with NCI-H226, 20.4 µM (inactive); in the assay on OVCAR-8, 23.1 µM (inactive).

With `C=C[C@@]1(C)CC[C@@H]2[C@@]3(C1)O[C@H]3CC1[C@](C)(C(=O)OC)CCC[C@@]12C` (stereo partly drawn), the GI50 was 15 µM (inactive) with SF-295; 17.9 µM (inactive) in the assay with UO-31; 17 µM (inactive) in the assay with OVCAR-3; 20.7 µM (inactive) with EKVX; 16.1 µM (inactive) in the assay on RXF 393; 16.4 µM (inactive) in the assay on NCI-H460. Also, the GI50 is 27.4 µM (inactive) with SK-OV-3; 23.7 µM (inactive) in the assay on SW-620; 16.1 µM (inactive) in the assay with ACHN; 35.6 µM (inactive) in the assay on KM12; 16.7 µM (inactive) in the assay on HOP-92; 33.5 µM (inactive) in the assay on CAKI-1. The GI50 in the assay on SNB-19 was 16.3 µM (inactive); with RPMI-8226, 27 µM (inactive); in the assay on K562 it was 32.8 µM (inactive); in the assay on OVCAR-8, 21.3 µM (inactive).

For `CC(C)(C)c1cc(C2COC(c3cc(C(C)(C)C)c(O)c(C(C)(C)C)c3)CO2)cc(C(C)(C)C)c1O` (stereo not drawn), the GI50 with SF-295, in the assay with UO-31, in the assay with OVCAR-3, in the assay on EKVX, in the assay on RXF 393 and in the assay on SK-OV-3 was > 100 µM (inactive) throughout. The GI50 in the assay on SW-620, in the assay with ACHN, in the assay on KM12, in the assay on HOP-92, in the assay on CAKI-1 and with SNB-19 was > 100 µM (inactive) in each case. Further, the GI50 with RPMI-8226, in the assay on K562, in the assay with LOX IMVI, in the assay with NCI-H226 and in the assay on OVCAR-8 was > 100 µM (inactive) each time.

Turning to `O=Cc1cc(C(=O)OCc2ccccc2)n(S(=O)(=O)c2ccccc2)c1`, the GI50 with SF-295 was 14.4 µM (inactive); with UO-31, 12.6 µM (inactive); in the assay with OVCAR-3 it was 18.7 µM (inactive); in the assay on EKVX, 23.3 µM (inactive); in the assay with RXF 393 it was 33.7 µM (inactive); with NCI-H460, 23.7 µM (inactive). For the same molecule, the GI50 with SR is 3.47 µM (inactive); with SK-OV-3, 21.6 µM (inactive); in the assay with ACHN it was 15.6 µM (inactive); in the assay on KM12, 13.4 µM (inactive); in the assay with CAKI-1 it was 29.4 µM (inactive); in the assay on SNB-19 it was 29.2 µM (inactive). For the same molecule, the GI50 in the assay with K562 was 4.51 µM (inactive); in the assay on LOX IMVI, 10.3 µM (inactive); in the assay with OVCAR-8, 31.9 µM (inactive).

Values taken from ChEMBL document CHEMBL1201862, “PubChem BioAssay data set” (2004).
